Values quoted from earlier work as cited in US20240423961A1, “1H-1,2,3-TRIAZOLE-4-CARBOXYLIC ACIDS FOR TREATMENT OF HYPEROXALURIA AND KIDNEY STONES” (CANTERO THERAPEUTICS, INC., priority 2021, published 2024).
“And” between values parts separate entries of the source, which are not always exact repeats. Identical values can stand only once. Like-named read-outs stand apart in the source and are kept apart here.

Tested on: glycolate oxidase (GO)
Conditions: cited from earlier work

## lumasiran
Single subcutaneous dose 0.3 mg/kg
  measured peak plasma glycolate relative to baseline levels: ~1.6 fold
Single subcutaneous dose 1.0 mg/kg
  measured peak plasma glycolate relative to baseline levels: ~2.5 fold
Single subcutaneous dose 3.0 mg/kg, 3 mg/kg
  measured peak plasma glycolate relative to baseline levels: ~3.1 fold and ~3 fold
Single subcutaneous dose 6.0 mg/kg
  measured peak plasma glycolate relative to baseline levels: ~7.3 fold
